Experimental data as given in patent US7270805B1, “Skin lightening agents, compositions and methods” (Conopco, Inc., priority 2006, dated 2007).

System: Melanoderm cultures
Assay: Solvable melanin assay on Melanoderm cultures (3-D skin model)
Type: cell-based
Details: for OD = 490 nm (melanin content, Solvable melanin assay): Melanoderm cultures fed every other day for 2 weeks, DMSO control 1.292, untreated 1.259
Procedure: This experiment was carried out using Melanoderm cultures. Luminescence was measured using a chromameter to assay the degree of melanization of a 3-D skin model.
Method for Melanoderm Cultures
Melanoderm cultures were obtained from MatTek Corporation, Ashland, Mass. The Melanoderm was maintained according to the manufacturer's instructions. The basal media used for the maintenance of the Melanoderm cultures was DMEM supplemented with unspecified quantities of Epidermal growth factor, Insulin, Hydrocortisone, and proprietary epidermal differentiation compounds, in addition to anti-fungal and antibiotics.
For the long term maintenance of the Melanoderms, the basal media was supplemented with both bFGF and a-MSH, compounds which are stimulators of melanocyte growth and melanogenesis. The cultures were fed every other day for a total of 2 weeks—fresh active preparations, prepared in DMSO or culture media, were also applied to the Melanoderms when feeding was performed. Each treatment condition was done in duplicate and digital photographs were taken of the Melanoderm cultures to assess overall pigmentation. As well, microscopic images of the Melanoderms were done to assess the cell viability of the keratinocytes and melanocytes. For further evidence that the treatments were/not cytotoxic, an LDH assay (Promega, Madison, Wis.) was performed on the supernatants from 24 hour post-treatment cultures.
To prepare tissues for assay:
After treatment, tissues are usually frozen until completion of the experiment. Thaw tissues, a few at a time and place in D-PBS to remove excess phenol red from the culture medium and residual test article. Remove a single tissue from the insert. Blot dry and place in 1.7 ml. microfuge tube. Repeat for all samples. Add 250 ul Solvable™ (Tissue and Gel Solubilizer 0.5 M—Packard BioScience Co. Catalogue No. 6NE9100 (NEF910)). Close the tube and make sure that the tissue is completely submerged. Incubate at 60° C. overnight along with standards. In the morning, vortex the samples. Sometimes thick tissues will require additional time to complete the solution process. To prepare standard: Dissolve Melanin (Sigma cat. M 8631) in Solvable at 1 mg/ml. The solution may be warmed gently for 15 minutes at 37° C. Store solution in dark. To prepare standard curve: Prepare dilutions from the standard containing 0 ug to 250 ug of melanin in a total of 250 ul Solvable. Incubate dilutions along with samples. To read assay: Cool samples and standards. Centrifuge at 13,000 rpm for 5 minutes to pellet. Fill microwell plate (C-96) with 200 ul each of samples and standards. There is some foaming of samples when pipetted. Blow gently across the samples to break bubbles prior to reading the plate. Read plate at […].

## CCC(=O)n1c(=O)sc2ccccc21 [3-propionylbenzothiazol-2-one]
125 uM
  OD = 490 nm (melanin content, Solvable melanin assay): 1.522
250 uM
  OD = 490 nm (melanin content, Solvable melanin assay): 1.509
375 uM
  OD = 490 nm (melanin content, Solvable melanin assay): 1.377
500 uM
  OD = 490 nm (melanin content, Solvable melanin assay): 0.889
750 uM
  OD = 490 nm (melanin content, Solvable melanin assay): 0.727
1000 uM
  OD = 490 nm (melanin content, Solvable melanin assay): 0.184
Conclusion from Table 5, Melanoderm cultures
  effect on melanin synthesis: reduce melanin synthesis
